Laboratory results taken from US9737525B2, “Small molecule activators of NRF2 pathway” (The General Hospital Corporation, priority 2013, dated 2017).

System: NRF2 responsive genes
Assay: Microarray gene expression profiling in mutant HTT ST14A cells (Case III)
Type: cell-based, rat
Conditions: 5 μM 24 hours vs untreated
Procedure: RNA was extracted from HD mutant and wild type ST14A cells, differentiated for 24 hours and treated with vehicle (DMSO) or with 5 μM MIND4, using the RNeasy kit (Qiagen). Labeled cRNAs were prepared and hybridized to Affymetrix GeneChip Rat Genome 230 2.0 microarrays according to the manufacturer's instructions. Affymetrix CEL (intensity) files from hybridized arrays were imported into the Partek Genome Suite, Partek Incorporated, for biostatistical analysis. 2 CEL files were used for each experimental condition: wild type (WT) untreated, MIND4 treated (WT/MIND4), mutant (MTT) untreated, and mutant (MTT) MIND4-terated (MTT/MIND4). Two-way ANOVA was performed with interaction term included and three of the evaluated contrasts were of interest (Case I, II, and III). Gene lists were created for each of the three contrasts using the thresholds of absolute value of fold-change>1.5 and p-value with False Discovery Rate (FDR)<0.05. The lengths of the gene lists are for Case I (DP)-1765 genes, for Case II (TP)-1797 genes, and for Case III (MDDP)-268 genes. These three gene lists were imported into Ingenuity IPA for pathway and network analyses. These analyses provided Networks (graph structures of molecules connected by relationships in the IPA knowledgebase), Functions (lists of molecules grouped together due to their contribution to a biological function) and Canonical Pathways (molecules and relationships that participate in a biological pathway). Scores are assigned according to the probability that the genes from the user's list might appear in the function or pathway by chance (right-tailed Fisher's Exact Test).
To determine whether MIND4 might engage targets other than SIRT2, the gene expression changes in treated versus untreated mutant HTT and wild type ST14A cells were evaluated using an approach described previously (Luthi-Carter et al., 2010). RNA from rat embryonic striatal (ST14A) cells stably expressing a 546 amino acid HTT fragment containing either an expanded (128Q) or wild type (26Q) repeat was extracted following treatment with 5 μM MIND4 for 24 hours was extracted and run on Affymetrix rat microarrays (Affy GeneChip Rat Genome 230 2.0 array) as described above in General Methods. Two replicates for each of the experimental conditions were imported into Partek Genome Suite for biostatistical analysis. Genes showing significant differential expression were identified by ANOVA, for three contrasts, resulting in three gene-lists: mutant HD (MT) vs. wild type (WT)=Case I (Disease Phenotype); MT/MIND4 treated vs. WT=Case II (Treatment Phenotype), and MT/MIND4 treated vs. MT=Case III (Mutant Drug-Dependent Phenotype). These represented transcriptional alterations in MT compared to WT cells (Case I), in MT treated compared to WT cells (Case II), and in MT treated cells compared to untreated MT cells (Case III). The lists, Cases I-III, were then imported into Ingenuity Pathway Analysis (IPA—Ingenuity® Systems, www.ingenuity.com) for pathway and network analyses.

SMILES: O=[N+]([O-])c1ccc(Sc2nnc(COc3ccccc3)n2-c2ccccc2)c2ncccc12 [MIND4, 5-nitro-8-{[5-(phenoxymethyl)-4-phenyl-4H-1,2,4-triazol-3-yl]thio}quinoline]
- Fold Increase, AOX1: 3.18 fold
- Fold Increase, CAT: 1.72 fold
- Fold Increase, DNAJA4: 1.53 fold
- Fold Increase, DNAJB9: 1.63 fold
- Fold Increase, FRA1: 3.17 fold
- Fold Increase, GCLC: 2.11 fold
- Fold Increase, GCLM: 3.32 fold
- Fold Increase, GSR: 2.14 fold
- Fold Increase, GSTA3: 20.09 fold
- Fold Increase, GSTM5: 1.89 fold
- Fold Increase, GSTP1: 2.21 fold
- Fold Increase, GSTT2/GSTT2B: 1.96 fold
- Fold Increase, HERPUD1: 1.55 fold
- Fold Increase, HO-1: 6.14 fold
- Fold Increase, KEAP1: 1.53 fold
- Fold Increase, MAFF: 1.75 fold
- Fold Increase, MGST1: 1.84 fold
- Fold Increase, MGST2: 2.94 fold
- Fold Increase, MRP4: 3.37 fold
- Fold Increase, NQO1: 7.34 fold
- Fold Increase, SQSTM1: 1.82 fold
- Fold Increase, TRXR1: 3.31 fold
